Measured values taken from patent US8729047B2, “Compositions for inhibiting redox-sensitive GTPases” (Board of Regents, The University of Texas System, priority 2010, dated 2014).

What was measured:
HME-RhoC cells [1] = test: Apoptosis / cell population of cells treated with thiopurines; format: cell-based, human; settings: not shown
RhoC [2] = target: T1, RhoC (Homo sapiens, UniProt P08134); test: Redox agent-mediated GDP dissociation (FIG. 16B); format: biochemical; set-up: made in house; host or cells: E. coli; settings: [3H]GDP-loaded RhoC 1 μM, redox agent ~3 μM, free GDP 10 μM, anaerobic
T1 sequence (P08134 whole entry): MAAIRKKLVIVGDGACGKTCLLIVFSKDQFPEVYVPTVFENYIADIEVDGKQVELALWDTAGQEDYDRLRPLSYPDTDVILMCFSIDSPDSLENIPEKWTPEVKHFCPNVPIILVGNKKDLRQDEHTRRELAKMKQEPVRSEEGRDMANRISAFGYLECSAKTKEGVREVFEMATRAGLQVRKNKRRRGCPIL
Method: (§1) FIG. 16. Kinetic properties of RhoC with 6-TGDP in the presence or absence of a redox agent. All kinetic analyses are described elsewhere herein. (A) ^appKD values of Rac1, RhoA, RhoC, and RhoC C20S for 6-TGDP were estimated to be 7.9, 11.6, 11.8, and 11.2 μM, respectively. ^trueKD values of Rac1, RhoA, […] for 6-TGDP were then calculated to be 5.1, 10.8, 11.1, and 10.5 μM, respectively, by using a compensation equation, ^trueKD for 6-TGDP=^appKD for 6-TGDP/(1+[[^3H]GDP]/^trueKD for GDP) (Heo, J., and Hong, I. (2010) Biochemistry 49, 3965-3976), in conjunction with the values given. […] The GDP dissociation rates from RhoC C20S by NO, .NO2, and N2O3 were estimated to be 0.02×10^−3, 0.05×10^−3, and 0.04×10^−3 s^−1, respectively. […] (D) ^appKD values of RhoC for [^3H]GDP in the presence or absence of DTT were estimated to be 22.4 μM and […], respectively. ^appKD values of C20S RhoC for [^3H]GDP in the presence or absence of DTT were determined to be 24.8 μM and 25.2 μM, respectively. The regression values associated with these fits were >0.8595. All data points associated with vertical standard error bars shown in this figure are the mean values of triplicate measurements.
(§2) Transition metal-free assay buffer and vials as described in a previous study (Heo et al. Biochemistry 49, 3965-3976 (2010)) were used for all kinetic assays. The kinetic assay buffer contains the highest grade of 50 mM NaCl, 10 mM MgCl2, 1 mM EDTA, and 0.1 mM DTPA in 50 mM TrisHCl (pH 7.4). Before performance of any of the assays, all protein samples also were dialyzed with a metal-free buffer under anaerobic conditions. As with RhoA and Rac1 (Heo et al. J. Biol. Chem. 280, 31003-31010 (2005)), C20S RhoC were expressed in E. coli and purified using anionic and size exclusion columns.
(§3) (b) The effect of redox agents such as NO, .NO2, and N2O3 on the binding interaction between RhoC proteins and GDP or 6-TGDP was examined under N2-filled serum-stoppered anaerobic experimental conditions (O2<3 ppm). These anaerobic experimental conditions were necessary to block the reaction of NO or .NO2 with O2 to produce higher oxides. The contents of NO and .NO2, respectively, in the sealed assay vials were determined by using a hemoglobin assay and NO2^−/NO3^− Assay Kit-C II (Dojindo) under anaerobic conditions (Heo et al. J. Biol. Chem. 280, 31003-31010 (2005); Heo et al. Biochemistry 43, 2314-2322 (2004)). N2O3 was generated by mixing NO and .NO2 1:1 stoichiometrically. […] The fraction of the redox agent-mediated release of the bound [^3H]GDP per Rho protein over time was determined as noted above, and the result was plotted against time. The rates of RhoC GDP dissociation in the presence of redox agents were determined by using Prism software to fit the result to a one-phase exponential decay.

RhoC C20S [3] = target: T2, RhoC C20S (Homo sapiens, UniProt P08134, C20S); test: Redox agent-mediated GDP dissociation (FIG. 16B); format: biochemical; set-up: made in house; host or cells: E. coli; settings: [3H]GDP-loaded protein 1 μM, redox agent ~3 μM, free GDP 10 μM, anaerobic
T2 sequence (P08134 whole entry C20S): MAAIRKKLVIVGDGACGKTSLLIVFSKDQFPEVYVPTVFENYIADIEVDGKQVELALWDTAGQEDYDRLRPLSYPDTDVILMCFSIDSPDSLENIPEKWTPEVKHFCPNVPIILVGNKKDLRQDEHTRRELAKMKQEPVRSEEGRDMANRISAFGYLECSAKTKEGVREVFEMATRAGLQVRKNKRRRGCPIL
Method: as §1, §2, §3

RhoC [4] = target: T1, RhoC; test: Redox agent-mediated 6-TGDP dissociation (FIG. 16C); format: biochemical; set-up: made in house; host or cells: E. coli; settings: 6-TGDP-loaded RhoC treated with redox agent, free [3H]GDP 10 μM
Method: as §1, §2
(§4) (c) To test the Rho 6-TGDP-binding interaction in the presence of redox agents, the 6-TGDP-loaded RhoC protein was treated with redox agents in the presence of free […] (10 μM). An association of RhoC protein with [^3H]GDP to produce a RhoC-[^3H]GDP complex will occur proportionally after RhoC releases 6-TGDP through the action of redox agents. Therefore, the fraction of the redox agent-mediated release of the bound 6-TGDP per Rho protein over time can be deduced by determination of the RhoC-bound [^3H]GDP, where the quantity of RhoC-bound 6-TGDP equals 1 minus the determined fraction of the RhoC-bound [^3H]GDP as described in Section (b). The estimated data associated with the quantity of RhoC-bound 6-TGDP then was fitted to a one-phase exponential decay; Prism software was used to derive the rate of 6-TGDP dissociation from RhoC.

RhoC C20S [5] = target: T2, RhoC C20S; test: as above; format: biochemical; set-up: made in house; host or cells: E. coli; settings: 6-TGDP-loaded RhoC C20S treated with redox agent, free [3H]GDP 10 μM
Method: as §1, §2, §4

HME-RhoC cells [6] = test: Matrigel invasion (cell motility) assay; format: cell-based, human; settings: NO donor alone 10 μM, three days continuous; FIG. 14A
Method: FIG. 5. Determination of cell invasiveness in the presence and absence of 6-thiopurine and/or a redox agent. The top chamber of a Transwell filter (6.5 mm with 8 μm pores, Costar; Corning, N.Y.) was coated with a 10 μL aliquot of 10 mg/mL Matrigel (BD Biosciences, Bedford Mass.), and the lower chamber of the Transwell was filled with either serum-free or serum-containing media. Sample cells (e.g., 6-TG-resistant HME-RhoC cells) were prepared to resuspend cells in a serum-free medium with 0.1% BSA at a concentration of 4×10^5 cells/mL. At this point, neither 6-thiopurine nor GSNO were added to the cells. The sample cells (0.5 mL) were added to the top chamber of a Transwell filter and were incubated for 24 h at 37° C. in a 10% CO2 incubator. The Transwell filters were fixed with methanol, stained with H&E, and cells in the serum-containing samples were counted. The number of cells that had invaded the serum-free medium-containing lower chambers was used as a control background. Results are given as percent invasion over that seen in HME-RhoC cells (100%) and represent mean and standard error values from triplicate measurements.
FIG. 11. Determination of cell invasiveness in the presence and absence of […] and/or a redox agent. […] The number of cells that had invaded the serum-free medium-containing lower chambers was used as a control background. Results are given as percent invasion over that seen in HME-RhoC cells (100%) and represent mean and standard error values from triplicate measurements.
(§5) FIG. 14. Determination of cell invasiveness in the presence and absence of thiopurines and/or redox agents. […] Western blot analysis representing the total expression of RhoC in these cells also is shown. (B) Experimental procedures for the determination of the time-dependent motility of cells using the QCM Cell Invasion Assay kit in the presence and absence of 6-TG and DETA/NO are described elsewhere herein.
(§6) The top chamber of a Transwell filter (6.5 mm with 8 μm pores, Costar; Corning, N.Y.) was coated with a 10 μL aliquot of 10 mg/mL Matrigel, and the lower chamber of the Transwell was filled with either serum-free or serum-containing media. Sample cells were prepared to resuspend cells in a serum-free medium with 0.1% BSA at a concentration of 4×10^5 cells/mL. […] The Transwell filters were fixed with methanol, stained with haematoxylin and eosin, and cells in the serum-containing samples were counted. The number of cells that had invaded the serum-free, medium-containing lower chambers was used as a control background.

HME-C20S RhoC cells [7] = test: Matrigel invasion (cell motility) assay; format: cell-based, human; settings: NO donor alone 10 μM, three days continuous; FIG. 14A
Source text: as §5, §6

SUM149 cells [8] = test: Matrigel invasion (cell motility) assay; format: cell-based, human; settings: NO donor alone 10 μM, three days continuous; FIG. 14A
Source text: as §5, §6

HME-C20S RhoC cells [9] = test: MTT cell viability and caspase-3/8 assays; format: cell-based, human; settings: NO donor alone; FIG. 25
Source text: (§7) FIG. 25. […] (B) Caspase-3/8 assay: the apoptotic activity of sample cells treated with the apoptotic inducer was set to be 100%, and other results were then expressed as normalized values against the mean value associated with the treatment with the apoptotic inducer. For both (A) and (B), all values represent the mean values and standard error values from triplicate measurements.

HME-RhoC cells [10] = test: MTT cell viability and caspase-3/8 assays; format: cell-based, human; settings: NO donor alone; FIG. 25
Source text: as §7

SUM149 cells [11] = test: MTT cell viability and caspase-3/8 assays; format: cell-based, human; settings: NO donor alone; FIG. 25
Source text: as §7

RhoA = target: T3, RhoA (Rattus norvegicus, UniProt P61589); test: RhoA expression (Western) and RhoA G-LISA activity in A7r5 cells; format: cell-based
T3 construct: endogenous in cells; host or cells: A7r5 cells (rat aortic vascular smooth muscle)
T3 sequence (P61589 whole entry): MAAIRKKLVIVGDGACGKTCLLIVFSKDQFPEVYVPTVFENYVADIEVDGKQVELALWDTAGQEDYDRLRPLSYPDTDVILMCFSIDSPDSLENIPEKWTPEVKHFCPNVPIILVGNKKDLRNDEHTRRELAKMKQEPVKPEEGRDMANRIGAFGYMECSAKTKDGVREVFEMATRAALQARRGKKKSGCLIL
Method: (§8) FIG. 20. Determination of RhoA activity and MLC phosphorylation. […] Cell lysates in a buffer containing 1% NP-40, 10 mM EDTA, and 20 mM TrisHCl (pH 7.4) were centrifuged (50,000×g, 20 min) to remove solid matter. (A) The soluble cell extract was then used to perform Western blot analyses for RhoA and the MLC. This cell extract also was used for the co-IP-based ESI-MS analysis (FIG. 6). (B) A RhoA activity assay was colorimetrically determined using cell extract; the assay was performed with the RhoA G-LISA Activation Assay Kit (Cat. No. BK124) (Denver, Colo.). To examine the level of phosphorylation of the MLC, cells were cultured with ˜5 μCi of ^32P in 1 mL of phosphate-free DMEM. The collected cell extract was nutated with resin coupled with a macrophage myosin II antibody at 4° C. for 5 h. Resin was collected by centrifugation, and proteins bound to the resin were washed and eluted with a buffer (80° C.) containing […], 5 mM DTT, and 10 mM TrisHCl (pH 6.8). The immunoprecipitates were then analyzed by SDS-PAGE and autoradiographed. The values of RhoA activity and the MLC phosphorylation determined from untreated cells were set at 100%. […] The data represented in the figure represent the mean values of triplicate measurements, and the vertical error bar indicates standard errors.

MLC = MLC phosphorylation in A7r5 cells; format: cell-based, rat; settings: only NO donor, DETA/NO ≅10 μM, FIG. 20B
Method: as §8

RhoC C20S [12] = target: T2, RhoC C20S; test: RhoC expression (Western) and RhoC activity assay in cells; format: cell-based; set-up: expressed in transfected cells; host or cells: human mammary epithelial (HME) cells; settings: HME-C20S RhoC cells, NO donor alone, three days
Method: as §5
(§9) Cells were lysed in an extraction buffer containing 50 mM NaCl, 5 mM MgCl2, 1 mM ethylenediaminetetraacetic acid (EDTA), 0.1 mM diethylenetriaminepentaacetic acid (DTPA), and 0.1% NP40 in 150 mM TrisHCl (pH 8.0). The content of […] RhoC in cells then was determined by using Western analysis that relies on a monoclonal anti-RhoC antibody (Biocompare, South San Francisco, Calif.). To determine RhoC activity, the colorimetric RhoA activation assay Biochem Kit (Cytoskeleton, Denver, Colo.) was used essentially as described in the previous study (Hall et al. Neoplasia 10, 797-803 (2008)) except that the RhoC specific antibody (vide supra), instead of the RhoA antibody included in the assay kit, was used for this analysis.

RhoC [13] = target: T1, RhoC; test: as above; format: cell-based; set-up: endogenous in cells; host or cells: SUM149, SUM102, SW480, HCCLM3 (endogenous); HME-RhoC (transfected with wild type RhoC); settings: SUM149 and HME-RhoC cells, NO donor alone, three days
Method: as §5, §9

Compound | cell population with other 6-TG analogs (HME-RhoC cells [1]) | rate of GDP dissociation (RhoC [2]) [s⁻¹] | rate of GDP dissociation (RhoC C20S [3]) [s⁻¹] | rate of 6-TGDP dissociation (RhoC [4]) [s⁻¹] | rate of 6-TGDP dissociation (RhoC C20S [5]) [s⁻¹] | effect on invasive cell motility (HME-RhoC cells [6]) | effect on invasive cell motility (HME-C20S RhoC cells [7]) | effect on invasive cell motility (SUM149 cells [8]) | effect on RhoC activity (RhoC C20S [12]) | effect on RhoC activity (RhoC [13]) | further results
Sc1ncnc2nc[nH]c12 [6-MP, 6-mercaptopurine] | decrease in the cell population |  |  |  |  |  |  |  |  |  | 
[O]N=O [.NO2, nitrogen dioxide] |  | 0.00604 | 5e-05 | 0.00265 | 0.00627 |  |  |  |  |  | 
Cn1cnc([N+](=O)[O-])c1Sc1ncnc2nc[nH]c12 [AZA, azathioprine] | decrease in the cell population |  |  |  |  |  |  |  |  |  | 
NCCN(CCN)/[N+]([O-])=N/O [DETA/NO, diethylenetriamine nitric oxide adduct] |  |  |  |  |  | minimal | minimal | minimal | minimal | minimal | cell viability and caspase activity (HME-C20S RhoC cells [9]): minimally changed; cell viability and caspase activity (HME-RhoC cells [10]): minimally changed; cell viability and caspase activity (SUM149 cells [11]): minimally changed; concentration of NO donor alone required for RhoA inactivation (RhoA; not shown): > 50 µM; RhoA inactivation (RhoA; only NO donor, DETA/NO ≅10 μM, FIG. 20B): minimal fraction of RhoA was inactivated; MLC dephosphorylation (MLC): sizable fraction of the MLC was dephosphorylated
N[C@@H](CCC(=O)N[C@@H](CSN=O)C(=O)NCC(=O)O)C(=O)O [GSNO, S-Nitrosoglutathione] |  |  |  |  |  | minimal | minimal | minimal | minimal | minimal | 
[N]=O [NO, nitric oxide] |  | 0.00019 | 2e-05 | 8e-05 | 4e-05 |  |  |  |  |  | 
